Patent US20100178277A1, “METHODS AND COMPOSITIONS FOR STIMULATING CELLS” (MEDIVATION NEUROLOGY, INC., priority 2007, published 2010)

Tests used:
[1] = system: primary rat hippocampal cells; assay: Mitochondrial JC-1 staining in ionomycin-treated primary rat hippocampal cells; type: cell-based; conditions: Dimebon 0.25 nM and 2.5 nM; 0.25 μM ionomycin; compared with vehicle treatment
Description: (§1) Primary neuronal cultures were prepared from rat fetal tissue on the gestation days indicated from the cortex (day 17), hippocampus (day 19) or spine (day 15). Neurons were dissociated by trypsinization in the presence of DNAseI and trituration and cultured in Neurobasal (Gibco) medium supplemented with 2% B27 (Gibco), 0.5 mM L-Glutamine. Cells were plated on poly L-lysine coated plates, allowed to adhere and maintained at 37° C. in 5% CO2-95% air and then test compound was added for a period of 3 days. Cultures were fixed using 2.5% glutaraldehyde. Approximately 80 digital images were taken per condition. Neurite length was calculated using Image-Pro Plus. Each analysis was performed with two separate culture studies. Dimebon was tested at concentrations of 0.01-500 nM and BDNF at 50 ng/mL. Mitochondrial effects were assessed with primary rat hippocampal cells treated with Dimebon or vehicle and 0.25 μM ionomycin. Dimebon's effects on JC-1 mitochondrial staining was also assessed in ionomycin-treated human neuroblastoma cells (SK—N—SH). Mitochondrial accumulation of JC-1 was assessed by fluorescence microscopy.

[2] = system: primary rat spinal motor neurons; assay: Neurite outgrowth of primary rat spinal motor neurons cultured with dimebon; type: cell-based; conditions: picomolar and nanomolar concentrations; FIG. 4
Description: (§2) Standard methods were used to isolate cortical neurons and spinal motor neurons. For the isolation of primary rat cortical neurons, the fetal brain from a pregnant rat at 17 days of gestation was prepared in Leibovitz's medium (L15; Gibco). The cortex was dissected out, and the meninges were removed. Trypsin (Gibco) was used to dissociate cortical neurons for 30 minutes at 37° C. with DNAse I. The cells were triturated in a 10 mL pipette in Dulbecco's Modified Eagle Media (“DMEM”; Gibco) with 10% Fetal Bovine Serum (“FBS”) (Gibco) and centrifuged at 350×g for 10 minutes at room temperature. The cells were suspended in Neurobasal medium supplemented with 2% B27 (Gibco) and 0.5 mM L-glutamine (Gibco). […] The results were expressed as mean (s.e.m.). […]
(§3) Primary neuronal cultures were prepared from rat fetal tissue on the gestation days indicated from the cortex (day 17), hippocampus (day 19) or spine (day 15). […] Neurite length was calculated using Image-Pro Plus. […] Mitochondrial effects were assessed with primary rat hippocampal cells treated with Dimebon or vehicle and 0.25 μM ionomycin. Dimebon's effects on JC-1 mitochondrial staining was also assessed in ionomycin-treated human neuroblastoma cells (SK—N—SH). Mitochondrial accumulation of JC-1 was assessed by fluorescence microscopy.

[3] = system: BrdU positive cells/neurons in the hippocampus and dentate gyrus; assay: Neurogenesis in healthy rats: BrdU / NeuN immunohistochemistry of hippocampus and dentate gyrus; type: in vivo, Wistar rats; conditions: 14 days
Text: Wistar rats were obtained from Charles River or Harlan Winkelmann (Germany). Male rats were approximately 3 months old upon arrival at the animal colony. Animals were kept in an animal facility under standardized conditions and according to the animal welfare regulations of the Ministry of Science of the Austrian government. A record of bodyweights was maintained. The animals were allowed to acclimatize for at least one week prior to any experimental manipulations. Twelve rats per group were maintained on a 12 hour light/dark cycle. Three backup animals were maintained in order to compensate for animal loss. All rats were housed in groups of four per cage and had ad libitum access to food and water. Rats were randomly allocated to four different treatment groups receiving intraperitoneal (i.p.) 5-bromo-2-deoxyuridine (BrdU, Sigma #B9285, 50 mg/kg body weight (b.w.)) and either (i) Dimebon at 10 mg/kg b.w./twice a day; (ii) Dimebon at 30 mg/kg b.w./twice a day; (iii) Dimebon at 60 mg/kg b.w./twice a day; or (iv) 0.2 mL vehicle (saline) twice a day. Treatment with BrdU, a synthetic nucleoside analog of thymidine, is commonly used to detect proliferating cells in living tissues such as the brain. Dimebon and vehicle were administered orally twice a day in a volume of 0.2 mL. BrdU was administered every other day. The daily Dimebon or vehicle treatment was performed several minutes before BrdU treatment. On day 14, animals were sacrificed approximately four hours after the last Dimebon treatment and one day after the last BrdU treatment. Diluted dimebon was prepared fresh daily. At sacrifice, the rats were sedated using standard anesthesia. After transcardial perfusion with phosphate buffered saline (PBS) followed by 4% Paraformaldehyde/PBS, the brain from each rat was carefully removed, post-fixed in 4% Paraformaldehyde/PBS for one hour, transferred to 15% sucrose for cryoprotection, and shock-frozen in liquid isopentane. Brains were stored at −80° C. until cryo-cutting. The brains were cut sagittally using a cryotome and stored at −20° C. until staining. Five layers were cut with 10 sections at 20 micrometers per layer with an interlayer slice gap of 100 micrometers. Standard Cresyl-Violett staining was performed on two consecutive slices per animal. BrdU immunohistochemistry was quantified to provide a morphological overview of cell division. For the evaluation of BrdU positive cells/neurons, sections were processed by double-incubation with mouse anti-Neuronal Nuclei (NeuN) monoclonal antibody (Chemicon) and anti-BrdU (Abcam). One section per layer was treated in a three-day double-incubation with mouse anti-Neuronal Nuclei (NeuN) monoclonal antibody 1:800 (Chemicon, Hofheim. Germany) and anti-BrdU (sheep polyclonal to BrdU) 1:500 (Abcam, Cambridge, UK). The secondary antibodies were a Cy-3-conjugated pure affine goat anti-mouse IgG (H+L) 1:200 (Jackson ImmunoResearch, Cambridgeshire, UK) and a Cy 2-conjugated pure affine F(ab′)2 fragment of donkey anti-sheep IgG (H+L) 1:100 (Jackson ImmunoResearch, Cambridgeshire, UK). Briefly, the anti-NeuN antibody was incubated overnight at 4° C., the Cy3 antibody was incubated the next day for one hour at room temperature, followed by the anti-BrdU antibody overnight at 4° C. and the Cy2 antibody for one hour at room temperature. To open the cell surfaces before the BrdU incubation, slices were treated with 2N HCl for 15 minutes at 40° C. and then washed for 20 minutes in a methanol mixture (60 ml methanol, 2 ml H2O2, and 0.6 ml Triton X) to block endogenous peroxidases. Niss1 staining was used as an overview staining. Tiled images of the sagittal slice including the cortex and the hippocampus were recorded at 200-fold magnification. Each single image used a PCO PixelFly camera mounted on a NikonE800 microscope equipped with an software controlled (StagePro) automatic table. Both fluorescent colors, red for NeuN and green for BrdU, were recorded separately. For quantification, the images were merged. […]

[4] = system: human neuroblastoma cells (SK—N—SH); assay: Mitochondrial JC-1 staining in ionomycin-treated SK-N-SH cells; type: cell-based
Description: as §1

[5] = system: primary rat hippocampal neurons; assay: Neurite outgrowth of primary rat hippocampal neurons cultured with dimebon; type: cell-based
Description: To isolate hippocampal neurons, a female rat of 19 days gestation was killed by cervical dislocation, and the fetuses were removed from the uterus. Their brains were removed and placed in ice-cold medium of Leibovitz (L15, Gibco, Invitrogen). Meninges were carefully removed, and the hippocamps were dissected out. The hippocampal neurons were dissociated by trypsinization for 30 minutes at 37° C. (Trypsin-EDTA; Gibco) in the presence of DNAse I (Roche; Meylan). The reaction was stopped by the addition of DMEM (Gibco) cell culture medium with 10% of FBS (Gibco). The suspension was triturated with a 10-ml pipette using a needle syringe 21G and centrifuged at 350×g for 10 minutes at room temperature. The resulting pellet is resuspended in culture medium containing Neurobasal medium (Gibco) supplemented with 2% B27 supplement (Gibco) and 2 mM of glutamine (Gibco). Viable cells were counted in a Neubauer cytometer using the trypan blue exclusion test (Sigma) and seeded on the basis of 30,000 cells per Petri dish (Nunc) precoated with poly-L-lysine. Cells were allowed to adhere for two hours and maintained in a humidified incubator at 37° C. in 5% CO2-95% air atmosphere. After adhesion, a vehicle control or dimebon was added at different concentrations to the medium. BDNF (1.85 nM) was used as a positive control for neurite growth. After treatment, cultures were washed in phosphate-buffered saline (PBS, Gibco) and fixed in glutaraldehyde 2.5% in PBS. Cells were fixed after 3 days growth. Several pictures (˜80) of cells with neurites without any branching were taken per condition with a camera (Coolpix 995; Nikon) fixed on microscope (Nikon, objective 40×). The length measurements were made by analysis of the pictures using software from Image-Pro Plus (France). The results were expressed as mean (s.e.m.). Statistical analysis of the data was performed using one way analysis of variance (ANOVA). […]
The effect of Dimebon (100 nM) on neurite outgrowth using primary hippocampal neurons was evaluated by measuring neurite length (expressed % of control, FIG. 5A) and number of neurites per neuron (FIG. 5B). The effects of vehicle, Dimebon and BDNF (50 ng/mL) were determined after incubations of 24 hours, 48 hours and 72 hours. […]
as §3

[6] = system: primary rat cortical neurons; assay: Neurite outgrowth of primary rat cortical neurons cultured with dimebon; type: cell-based; conditions: low concentrations (picomolar and nanomolar); 3 days growth; FIG. 1
Description: as §2, §3

SMILES: Cc1ccc2c(c1)c1c(n2CCc2ccc(C)nc2)CCN(C)C1.Cl.Cl [Dimebon, 2,8-dimethyl-5-(2-(6-methyl-3-pyridyl)-ethyl)-2,3,4,5-tetrahydro-1H-pyrido[4,3-b]indole dihydrochloride]
- mitochondrial JC-1 staining [1]: preserved
- neurite outgrowth of primary rat spinal motor neurons [2]: stimulated
- BrdU positive progenitor cells in the dentate gyrus ([3]; 30 mg/kg Dimebon vs vehicle, p=0.05, FIG. 7A): significant increase
- BrdU positive progenitor cells in the hippocampus ([3]; 60 mg/kg Dimebon vs vehicle-treated group, p=0.05, FIG. 6A): significant increase
- BrdU positive neurons (NeuN and BrdU IR) in the hippocampus ([3]; 60 mg/kg Dimebon vs vehicle-treated group, p=0.05, FIG. 6B): significant increase
- BrdU positive progenitor cells in the dentate gyrus ([3]; 60 mg/kg Dimebon vs vehicle-treated group, p=0.05, FIG. 7A): significant increase
- BrdU positive neurons (NeuN and BrdU IR) in the dentate gyrus ([3]; 60 mg/kg Dimebon vs vehicle-treated group, p=0.05, FIG. 7B): significant increase
- total number of BrdU staining cells in the hippocampus ([3]; rats, oral twice a day, FIG. 6A): increases
- number of BrdU staining neurons in the hippocampus ([3]; rats, oral twice a day, FIG. 6B): increases
- total number of BrdU staining cells in the dentate gyrus ([3]; rats, oral twice a day, FIG. 7A): increases
- number of BrdU staining neurons in the dentate gyrus ([3]; rats, oral twice a day, FIG. 7B): increases
- mitochondrial JC-1 staining [4]: preserved
- effect on neurite length and number of neurites per neuron relative to BDNF ([5]; Dimebon 100 nM vs BDNF 50 ng/mL, 24, 48, 72 hours): comparable
- neurite length ([5]; Dimebon 100 nM, incubations of 24, 48 and 72 hours, compared to vehicle, FIG. 5A): increased
- number of neurites per neuron ([5]; Dimebon 100 nM, incubations of 24, 48 and 72 hours, compared to vehicle, FIG. 5B): increased
- neurite outgrowth of primary rat hippocampal neurons ([5]; picomolar and nanomolar concentrations, 3 days growth, FIG. 3): stimulated
- neurite outgrowth of primary rat cortical neurons [6]: stimulated
